In patent US5627206A, “Tricyclic inhibitor of matrix metalloproteinases” (Warner-Lambert Company, priority 1995, dated 1997):
Where two headings read alike, the source gives them in different places.

Experiments:
[1] = test system: Mycobacterium footpad edema; experiment: Mycobacterium footpad edema assay (MFE); assay type: in vivo, Wistar rats; conditions: all values of Table IV (2, 10, 50 mg/kg)
Description: (§1) The activity of Example 2 as a general inhibitor of inflammation was tested using the Mycobacterium footpad edema assay (MFE) in Wistar rats. Compound was administered daily by gavage at 2 mg/kg, 10 mg/kg, or 50 mg/kg.
Male outbred Wistar rats (110-125 g, Charles River Labs, Portage, Mich.) were used in this study. Rats were housed for a minimum of 1 week before use. Food and water were supplied ad libitum. Foot pad edema was induced following the method described by Martel R.R. and Klicius J., "Comparisons in rats of the antiinflammatory and gastric irritant effects of etodolac with several clinically effective antiinflammatory drugs", Agents and Actions, 1982;12:295. […] Swelling was assessed on the third day by subtracting the initial volume (determined immediately following the Mycobacterium injection) from the final volume of the treated paw. Paw volume was determined by mercury plethysmography. The percent inhibition of edema achieved in each compound-treated group was determined by comparison with swelling in the vehicle-treated group and the ID50 values were determined by regression analysis. Statistical significance between experimental groups was evaluated using a Student's t-test.

[2] = target: T1, GCD (recombinant gelatinase A catalytic domain) (Homo sapiens, UniProt P08253); experiment: Inhibition of GCD (recombinant gelatinase A catalytic domain), thiopeptolide substrate; assay type: biochemical; conditions: thiopeptolide substrate Ac-Pro-Leu-Gly-thioester-Leu-Leu-Gly-OEt
T1 construct: propeptide, C-terminal domain and fibronectin-like insert removed; E. coli host likely
T1 sequence (P08253 110-660): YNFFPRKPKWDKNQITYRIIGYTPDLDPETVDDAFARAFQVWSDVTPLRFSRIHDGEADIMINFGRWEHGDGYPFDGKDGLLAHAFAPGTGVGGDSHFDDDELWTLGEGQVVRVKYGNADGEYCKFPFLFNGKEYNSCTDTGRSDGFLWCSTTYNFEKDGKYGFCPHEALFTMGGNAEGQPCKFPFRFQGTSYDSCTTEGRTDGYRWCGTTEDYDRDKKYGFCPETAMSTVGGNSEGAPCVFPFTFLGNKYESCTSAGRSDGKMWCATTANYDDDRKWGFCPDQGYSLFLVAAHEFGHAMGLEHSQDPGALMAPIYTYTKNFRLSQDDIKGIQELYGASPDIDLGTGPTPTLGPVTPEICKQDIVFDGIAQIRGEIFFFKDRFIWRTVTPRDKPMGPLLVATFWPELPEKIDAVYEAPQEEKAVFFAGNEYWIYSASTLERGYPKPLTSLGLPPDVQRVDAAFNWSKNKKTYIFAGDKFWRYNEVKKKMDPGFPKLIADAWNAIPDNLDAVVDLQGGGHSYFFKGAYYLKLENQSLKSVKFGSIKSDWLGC
Source text: Matrix metalloproteinases share high sequence homology and the catalytic domains of each of the MMPs can be identified by sequence alignment. The gene for the catalytic domain of stromelysin-1, SCD, was constructed by removing the propeptide and C-terminal domain (Ye Q.-Z., Johnson L.L, Hupe D.J., and Baragi V., "Purification and Characterization of the Human Stromelysin Catalytic Domain Expressed in Escherichia coli", Biochemistry,1992;31:11231-11235). The gelatinase A catalytic domain, GCD, was similarly constructed with the additional removal of the fibronectin-like insert which interrupts the catalytic domain (Ye Q.-Z., Johnson L.L, Yu A.E., and Hupe D., "Reconstructed 19 kDa Catalytic Domain of Gelatinase A is an Active Proteinase", Biochemistry, 1995;34:4702-4708). Both truncated proteins cleave synthetic peptide substrates and the natural substrates proteoglycan and gelatin in a manner similar to the full-length enzymes and can be used to identify matrix metalloproteinase inhibitors.
Experiments were carried out with both the full-length enzymes and the catalytic domains. […] IC50 values were determined using a thiopeptolide substrate, Ac-Pro-Leu-Gly-thioester-Leu-Leu-Gly-OEt (Ye Q.-Z., Johnson L.L., Hupe D.J., and Baragi V., "Purification and Characterization of the Human Stromelysin Catalytic Domain Expressed in Escherichia coli", Biochemistry,1992;31:11231-11235). […]

EAE Rats [3] = experiment: EAE Lewis rat acute model, Protocol 1 (daily oral dosing Day 0-14); assay type: in vivo
Description: (§2) Female Lewis rats were purchased from Harlan Sprague-Dawley (Indianapolis, IN) and were used at 8 to 10 weeks of age. Active EAE was induced by injection of 0.05 mL emulsion of myelin basic protein (MBP) with complete Freund's adjuvant (CFA), containing 25 μg guinea pig MBP and 100 μg Mycobacterium butyricum (Difco Laboratories, Detroit, MI) into one hind footpad. Immunized rats were observed daily for clinical signs of EAE and scored as follows: 0, no symptoms; 1, loss of tail tonicity; 2, paresis; 3, hind limb paralysis, often accompanied by incontinence; and 4, death. Formalin-fixed brain slice sections were stained with hematoxylin-eosin and evaluated microscopically for perivascular and parenchymal infiltration. Compound was administered by gavage as a solution in sterile saline in a volume of 500 μL. […] Several different protocols were used to define the efficacy and timing requirements for potency.
Protocol 1: Compound was administered daily at 50 mg/kg beginning on Day 0 and continuing through Day 14, with MBP in CFA administered on Day 0 also. […] N=5 for all groups.

EAE Rats [4] = experiment: EAE Lewis rat acute model, Protocol 2 (alternate-day oral dosing Day 0-14); assay type: in vivo; conditions: for Effect on EAE Rats (≥Paresis/Total): CFA + MBP control 5/7
Description: as §2
Controls run in parallel included CFA only and MBP in CFA. N=4 for treatment groups. N=8 for controls.

[5] = Plasma concentrations after oral dosing; assay type: in vivo, Wistar rats; conditions: for Cmax: read-out: plasma concentration (Cmax)
Description: as §1, with “mg/kg. […] The bioavailability of this compound is therefore well in excess of the effective range of gelatinase A inhibition determined in the in vitro assays.” for “mg/kg.”

[6] = test system: leukocyte migration across the blood-brain barrier; experiment: Histology of brain slices from Protocol 1 EAE animals; assay type: in vivo, Lewis rat; conditions: 50 mg/kg daily dosing schedule
Description: The activity of Example 2 in suppressing the inflammatory disease associated with EAE was tested using the Lewis rat acute model. Female Lewis rats were purchased from Harlan Sprague-Dawley (Indianapolis, IN) and were used at 8 to 10 weeks of age. Active EAE was induced by injection of 0.05 mL emulsion of myelin basic protein (MBP) with complete Freund's adjuvant (CFA), containing 25 μg guinea pig MBP and 100 μg Mycobacterium butyricum (Difco Laboratories, Detroit, MI) into one hind footpad. Immunized rats were observed daily for clinical signs of EAE and scored as follows: 0, no symptoms; 1, loss of tail tonicity; 2, paresis; 3, hind limb paralysis, often accompanied by incontinence; and 4, death. Formalin-fixed brain slice sections were stained with hematoxylin-eosin and evaluated microscopically for perivascular and parenchymal infiltration. Compound was administered by gavage as a solution in sterile saline in a volume of 500 μL. The dose of 50 mg/kg typically required 7.5 mg of compound per rat. Several different protocols were used to define the efficacy and timing requirements for potency.

[7] = target: T2, collagenase (full-length native enzyme) (Homo sapiens, UniProt P03956); experiment: Inhibition of collagenase (full-length native enzyme), thiopeptolide substrate; assay type: biochemical
T2 construct: collagenase (full-length native enzyme)
T2 sequence (P03956 100-469): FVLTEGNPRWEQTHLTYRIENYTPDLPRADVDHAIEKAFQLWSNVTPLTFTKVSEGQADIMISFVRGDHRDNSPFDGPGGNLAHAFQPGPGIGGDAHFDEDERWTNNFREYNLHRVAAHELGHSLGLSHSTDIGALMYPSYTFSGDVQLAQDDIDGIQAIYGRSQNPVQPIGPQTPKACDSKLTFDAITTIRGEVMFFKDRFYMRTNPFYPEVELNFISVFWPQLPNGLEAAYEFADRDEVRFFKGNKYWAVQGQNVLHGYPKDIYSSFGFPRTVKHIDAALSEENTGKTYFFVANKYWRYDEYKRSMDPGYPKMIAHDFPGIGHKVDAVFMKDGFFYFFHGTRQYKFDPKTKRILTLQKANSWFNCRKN
Description: Experiments were carried out with both the full-length enzymes and the catalytic domains. […] IC50 values were determined using a thiopeptolide substrate, Ac-Pro-Leu-Gly-thioester-Leu-Leu-Gly-OEt (Ye Q.-Z., Johnson L.L., Hupe D.J., and Baragi V., "Purification and Characterization of the Human Stromelysin Catalytic Domain Expressed in Escherichia coli", Biochemistry,1992;31:11231-11235). […] IC50 values for gelatinase B, and collagenase, were >100 μM.

[8] = test system: experimental allergic encephalomyelitis (EAE); conditions: Gijbels et al.; dose dependent; cited from earlier work

| SMILES | statistical significance of inhibition of the inflammatory response [1] | IC50 [2] [nM] | average scores for the treated group (EAE Rats [3]; 50 mg/kg daily, Day 0 through Day 14) | percentage of animals responding (total inhibition or reduction of symptoms) (EAE Rats [3]; 50 mg/kg daily, Day 0 through Day 14, N=5) [%] | Effect on EAE Rats (≥Paresis/Total) (EAE Rats [3]; CFA + Example 2 (no MBP), 50 mg/kg daily oral from Day 0) | Effect on EAE Rats (≥Paresis/Total) (EAE Rats [3]; CFA + MBP + Example 2, 50 mg/kg daily oral from Day 0, CFA + MBP control 5/5) | Effect on EAE Rats (≥Paresis/Total) (EAE Rats [4]; CFA + MBP + Example 2, 10 mg/kg alternate days) | Effect on EAE Rats (≥Paresis/Total) (EAE Rats [4]; CFA + MBP + Example 2, 50 mg/kg alternate days) | significance (p) of decrease in disease severity (EAE Rats [4]; Day 15, 10 or 50 mg/kg alternate days) | Cmax and AUC(0-4) dose dependence ([5]; 2, 10, 50 mg/kg) | Cmax ([5]; rat, plasma, po, 2-mg/kg dose) [µM] | Cmax ([5]; rat, plasma, po, 10-mg/kg dose) [µM] | Cmax ([5]; rat, plasma, po, 50-mg/kg dose) [µM] | Tmax ([5]; rat, plasma, po, post-treatment, read-out: time of peak plasma concentration) [h] | plasma concentration decline ([5]; through the subsequent 4 hours after peak) | CNS inflammation [6] | cuff formation [6] | leukocyte migration across the blood-brain barrier [6] | IC50 [7] [nM] | effect on development or clinical expression of EAE [8] |
| --- | --- | --- | --- | --- | --- | --- | --- | --- | --- | --- | --- | --- | --- | --- | --- | --- | --- | --- | --- | --- |
| O=C(O)CCC(=NO)c1ccc2oc3ccccc3c2c1 [Example 2, 4-Dibenzofuran-2-yl-4-hydroximino-butyric acid] | statistically significant | 40 | substantially reduced | 100 | 0/5 | 1/5 | 0/4 | 0/4 | ≤ 0.01 | increase proportionately with dose | 4.62 | 38.8 | 163 | 1 | declined mono-exponentially | little CNS inflammation | no cuff formation | completely prevented | > 100000 | – |
| CNC(=O)[C@H](Cc1c[nH]c2ccccc12)NC(=O)[C@@H](CC(=O)NO)CC(C)C [GM6001] | – | – | – | – | – | – | – | – | – | – | – | – | – | – | – | – | – | – | – | suppressed the development or reversed the clinical expression of experimental allergic encephalomyelitis (EAE) in a dose dependent manner |
